SMILES strings stand for the structures.

The subject of the test is a variety of test species. The test is described as follows: Post-emergence herbicidal activity. In kind it is in vivo. Details: key to ABUTH (Abutilon theophrasti) damage score / AMARE (Amaranthus retroflexus) damage score / ALOMY (Alopecurus myosuroides) damage score / ECHCG (Echinochloa crus-galli) damage score / ZEAMX (Zea mays) damage score / SOLNI (Solanum nigrum) damage score: 0 = no damage to plant, 5 = total damage to plant. The conditions noted are these: rate 1000 g/ha, evaluated after 13 days. In a few lines: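 Plants grown for 8 days in pots were sprayed post-emergence with compound in acetone/water (50:50) containing 0.5% Tween 20. They were kept in a glasshouse at 24/16 °C day/night, 14 h light, 65% humidity, watered twice daily. Damage was scored after 13 days (0 none to 5 total).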
In the case of `CCc1cc(N2C(=O)C(C)=C(OC)C2O)ncc1-c1ccc(F)cc1` (stereo not drawn) [AD62], the “ABUTH (Abutilon theophrasti) damage score” value (shortened to “ABUTH”) turned out to be 4, the “ALOMY (Alopecurus myosuroides) damage score” value (“ALOMY” for short) is recorded as 3, the “AMARE (Amaranthus retroflexus) damage score” value (“AMARE” below) came out at 5 and the “ECHCG (Echinochloa crus-galli) damage score” value (shortened to “ECHCG”) was 3. The “SETFA (Setaria faberi) damage score” value is reported as 5 and the “ZEAMX (Zea mays) damage score” value came out at 0.
For `COC1=C(C)C(=O)N(c2ncc(Br)c(C(F)(F)F)c2Br)C1O` (stereo not drawn) [AD29], the “ABUTH” value is 0, the “ALOMY” value was found to be 1, the “AMARE” value was 0 and the “ECHCG” value is 0. Also, the “SETFA (Setaria faberi) damage score” value amounted to 0 and the “ZEAMX (Zea mays) damage score” value was found to be 1.
With `CC1=C(Cl)C(O)N(c2cc(C)c(Br)cn2)C1=O` (stereo not drawn) [AA10], the “ABUTH” value was 0, the “ALOMY” value worked out at 1, the “AMARE” value is on record as 3 and the “ECHCG” value turned out to be 1. Besides, the “SETFA (Setaria faberi) damage score” value stood at 2 and the “ZEAMX (Zea mays) damage score” value is listed as 1.
In the case of `COC1=C(Br)C(O)N(c2cc(C(F)(F)F)ccn2)C1=O` (stereo not drawn) [AE1, 3-bromo-2-hydroxy-4-methoxy-1-[4-(trifluoromethyl)-2-pyridyl]-2H-pyrrol-5-one], the “ABUTH” value turned out to be 4, the “ALOMY” value is on record as 3, the “AMARE” value came to 5 and the “ECHCG” value is 5. Moreover, the “SETFA (Setaria faberi) damage score” value was 3 and the “ZEAMX (Zea mays) damage score” value is recorded as 0.
As for `COC1=C(C)C(=O)N(c2cc(C(F)(F)F)c(OCCCF)cn2)C1O` (stereo not drawn) [AD79], the “ABUTH” value turned out to be 5, the “ALOMY” value is 5, the “AMARE” value is listed as 5 and the “ECHCG” value is given as 5. Further, the “SETFA (Setaria faberi) damage score” value was found to be 5 and the “ZEAMX (Zea mays) damage score” value is reported as 2.
Consider `CC1=C(Cl)C(O)N(c2cc(C(C)(C)C)ncn2)C1=O` (stereo not drawn) [CA1], for which the “ABUTH” value is listed as 1, the “ALOMY” value came out at 1, the “AMARE” value was found to be 3 and the “ECHCG” value came to 1. Further, the “SETFA (Setaria faberi) damage score” value amounted to 2 and the “ZEAMX (Zea mays) damage score” value was 1.
As to `CC1=C(Cl)C(O)N(c2cc(C(F)(F)F)ncn2)C1=O` (stereo not drawn) [CA2], the “ABUTH” value is 0, the “ALOMY” value is listed as 1, the “AMARE” value is recorded as 0 and the “ECHCG” value turned out to be 0. Moreover, the “SETFA (Setaria faberi) damage score” value is given as 0 and the “ZEAMX (Zea mays) damage score” value stood at 0.
As for `CCc1cc(N2C(=O)C(C)=C(OC)C2O)ncc1-c1ccoc1` (stereo not drawn) [AD102], the “ABUTH” value is given as 4, the “ALOMY” value was 3, the “AMARE” value is listed as 5 and the “ECHCG” value was determined as 3. The “SETFA (Setaria faberi) damage score” value is listed as 4 and the “ZEAMX (Zea mays) damage score” value is reported as 1.
Turning to `CCOC(=O)c1cnc(N2C(=O)C(C)=C(Cl)C2O)cc1Cl` (stereo not drawn) [AA47], the “ABUTH” value is 1, the “ALOMY” value was 1, the “AMARE” value worked out at 0 and the “ECHCG” value is given as 2. Moreover, the “SETFA (Setaria faberi) damage score” value was found to be 3 and the “ZEAMX (Zea mays) damage score” value amounted to 1.
On to `CCc1cc(N2C(=O)C(C)=C(OC)C2O)ncc1-c1ccc(F)cc1F` (stereo not drawn) [AD106], for which the “ABUTH” value came to 5, the “ALOMY” value was determined as 2, the “AMARE” value is reported as 5 and the “ECHCG” value came to 4. In addition, the “SETFA (Setaria faberi) damage score” value came out at 4 and the “ZEAMX (Zea mays) damage score” value is reported as 0.
In the case of `COC1=C(C)C(=O)N(c2cc(C(C)(C)C)cnn2)C1O` (stereo not drawn) [BD1, 1-(5-tert-butylpyridazin-3-yl)-2-hydroxy-3-methoxy-4-methyl-2H-pyrrol-5-one], the “ABUTH” value stood at 5, the “ALOMY” value is on record as 4, the “AMARE” value is 5 and the “ECHCG” value is recorded as 5. The “SETFA (Setaria faberi) damage score” value was 5 and the “ZEAMX (Zea mays) damage score” value is reported as 1.
For the compound `CCc1cc(N2C(=O)C(C)=C(OC)C2O)ncc1-c1ccccc1[N+](=O)[O-]` (stereo not drawn) [AD104], the “ABUTH” value is 5, the “ALOMY” value came out at 2, the “AMARE” value is 5 and the “ECHCG” value is reported as 2. In addition, the “SETFA (Setaria faberi) damage score” value was 4 and the “ZEAMX (Zea mays) damage score” value is recorded as 0.
In the case of `COC1=C(C)C(=O)N(c2cc(C(F)(F)F)c(OCCCc3ccccc3)cn2)C1O` (stereo not drawn) [AD84], the “ABUTH” value is recorded as 2, the “ALOMY” value is on record as 1, the “AMARE” value came out at 5 and the “ECHCG” value is 2. Moreover, the “SETFA (Setaria faberi) damage score” value was 4 and the “ZEAMX (Zea mays) damage score” value was 1.
For `COC1=C(C)C(=O)N(c2cc(C)c(-c3ccccc3F)cn2)C1O` (stereo not drawn) [AD121], the “ABUTH” value worked out at 5, the “ALOMY” value is listed as 3, the “AMARE” value is given as 5 and the “ECHCG” value turned out to be 3. For the same compound, the “SETFA (Setaria faberi) damage score” value amounted to 5 and the “ZEAMX (Zea mays) damage score” value is given as 1.
For the compound `CC1=C(Cl)C(O)N(c2cc(C(F)(F)F)c(Br)cn2)C1=O` (stereo not drawn) [AA25, 1-[5-bromo-4-(trifluoromethyl)-2-pyridyl]-3-chloro-2-hydroxy-4-methyl-2H-pyrrol-5-one], the “ABUTH” value was determined as 1, the “ALOMY” value is 2, the “AMARE” value was found to be 5 and the “ECHCG” value is 3. The “SETFA (Setaria faberi) damage score” value came to 3 and the “ZEAMX (Zea mays) damage score” value was 1.
`CCN(C)c1cc(N2C(=O)C(C)=C(OC)C2O)ncn1` (racemic) [CD6]: the “ABUTH” value was 3, the “ALOMY” value is 2, the “AMARE” value is 3 and the “ECHCG” value stood at 0. Besides, the “SETFA (Setaria faberi) damage score” value came to 2 and the “ZEAMX (Zea mays) damage score” value amounted to 0.
`COC1=C(C)C(=O)N(c2cc3c(cn2)CCCC3)C1O` (stereo not drawn) [AD64]: the “ABUTH” value came out at 4, the “ALOMY” value turned out to be 1, the “AMARE” value was 2 and the “ECHCG” value was 3. Further, the “SETFA (Setaria faberi) damage score” value came out at 5 and the “ZEAMX (Zea mays) damage score” value came to 1.

The values are drawn from US9611248B2, “Chemical compounds” (Syngenta Participations AG, priority 2013, dated 2017).
